Reference: patent publication US20120115724A1, “METHOD OF CONTROLLING UNDESIRED VEGETATION” (SYNGENTA CROP PROTECTION LLC, priority 2009, published 2012)

Legend:
Assay type in all cases: in vivo
[1] = tested on: POLCO Polygonum convolvulus; test: Pre-emergence crop and weed test (Example 16); settings: after 20 days
Description: (§1) Seeds of crop and representative weed species were sown in standard soil in pots. After cultivation for 1 day under controlled conditions in a glasshouse (at 22/16° C., day/night; 16 hours light; 65% humidity), the plants were sprayed. The spray solution was prepared by dissolving the technical active ingredient in acetone containing 10.56 wt % Emulsogen EL, 42.22 wt % N-methylpyrrolidone and 2.22 wt % DPG-monoethyl ether to give a 5% stock solution. This was then diluted with water containing 0.2% (v/v) of the adjuvant X-77 to give the desired treatment concentration.
(§2) The test plants were then grown on under controlled conditions in a glasshouse (at 22/16° C., day/night; 16 hours light; 65% humidity) and watered twice daily. After 20 days the test was evaluated (100=total damage to plant; 0=no damage to plant).
(§3) Species as for Post-Emergence Test.

[2] = tested on: IPOHE Ipomoea hederacea; test: Pre-emergence crop and weed test (Example 16); settings: after 20 days
Description: as §1, §2, §3

[3] = tested on: AMARE Amaranthus retroflexus; test: Pre-emergence crop and weed test (Example 16); settings: after 20 days
Description: as §1, §2, §3

[4] = tested on: KCHSC Kochia scoparia; test: Pre-emergence crop and weed test (Example 16); settings: after 20 days
Description: as §1, §2, §3

[5] = tested on: GLXMA Soybean; test: Pre-emergence crop and weed test (Example 16); settings: after 20 days
Description: as §1, §2, §3

[6] = tested on: SIDSP Sida spinosa; test: Pre-emergence crop and weed test (Example 16); settings: after 20 days
Description: as §1, §2, §3

[7] = tested on: XANST Xanthium strumarium; test: Pre-emergence crop and weed test (Example 16); settings: after 20 days
Description: as §1, §2, §3

[8] = tested on: SINAR Sinapis arvensis; test: Pre-emergence crop and weed test (Example 16); settings: after 20 days
Description: as §1, §2, §3

[9] = tested on: ABUTH Abutilon theophrasti; test: Pre-emergence crop and weed test (Example 16); settings: after 20 days
Description: as §1, §2, §3

[10] = tested on: EPHHL Euphorbia heterophylla; test: Pre-emergence crop and weed test (Example 16); settings: after 20 days
Description: as §1, §2, §3

[11] = tested on: GALAP Galium aparine; test: Pre-emergence crop and weed test (Example 16); settings: after 20 days
Description: as §1, §2, §3

[12] = tested on: CHEAL Chenopodium album; test: Pre-emergence crop and weed test (Example 16); settings: after 20 days
Description: as §1, §2, §3

[13] = tested on: POLCO Polygonum convolvulus; test: Post-emergence crop and weed test (Example 15); settings: Fallopia convolvulus, 360 h, after 15 days, read-out: Percentage damage POLCO
In short: (§4)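 Plants grown 14 days in a glasshouse (22/16 °C, 16 h light, 65% humidity) were sprayed post-emergence with active ingredient from a solvent/emulsifier stock diluted in water with 0.2% X-77. Damage was scored 15 days later on a 0–100 scale, where 100 is total damage.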

[14] = tested on: IPOHE Ipomoea hederacea; test: Post-emergence crop and weed test (Example 15); settings: 360 h, after 15 days, read-out: Percentage damage IPOHE
In short: as §4

[15] = tested on: AMARE Amaranthus retroflexus; test: Post-emergence crop and weed test (Example 15); settings: 360 h, after 15 days, read-out: Percentage damage AMARE
In short: as §4

[16] = tested on: KCHSC Kochia scoparia; test: Post-emergence crop and weed test (Example 15); settings: Bassia scoparia, 360 h, after 15 days, read-out: Percentage damage KCHSC
In short: as §4

[17] = tested on: GLXMA Soybean; test: Post-emergence crop and weed test (Example 15); settings: Glycine max, 360 h, after 15 days, read-out: Percentage damage GLXMA
In short: as §4

[18] = tested on: SIDSP Sida spinosa; test: Post-emergence crop and weed test (Example 15); settings: 360 h, after 15 days, read-out: Percentage damage SIDSP
In short: as §4

[19] = tested on: XANST Xanthium strumarium; test: Post-emergence crop and weed test (Example 15); settings: 360 h, after 15 days, read-out: Percentage damage XANST
In short: as §4

[20] = tested on: VERPE Veronica persica; test: Post-emergence crop and weed test (Example 15); settings: 360 h, after 15 days, read-out: Percentage damage VERPE
In short: as §4

[21] = tested on: SINAR Sinapis arvensis; test: Post-emergence crop and weed test (Example 15); settings: Mutarda arvensis, 360 h, after 15 days, read-out: Percentage damage SINAR
In short: as §4

[22] = tested on: ABUTH Abutilon theophrasti; test: Post-emergence crop and weed test (Example 15); settings: 360 h, after 15 days, read-out: Percentage damage ABUTH
In short: as §4

[23] = tested on: EPHHL Euphorbia heterophylla; test: Post-emergence crop and weed test (Example 15); settings: 360 h, after 15 days, read-out: Percentage damage EPHHL
In short: as §4

[24] = tested on: GALAP Galium aparine; test: Post-emergence crop and weed test (Example 15); settings: 360 h, after 15 days, read-out: Percentage damage GALAP
In short: as §4

[25] = tested on: CHEAL Chenopodium album; test: Post-emergence crop and weed test (Example 15); settings: 360 h, after 15 days, read-out: Percentage damage CHEAL
In short: as §4

For `COC(=O)c1nc(-c2ccc(Cl)c(OC)c2F)nc(NCc2ccco2)c1Cl` [Ref. Ex. E, 5-Chloro-2-(4-chloro-2-fluoro-3-methoxyphenyl)-4-(furan-2-ylmethylamino)-6-methoxycarbonyl-pyrimidine, reference compound], the “Percentage damage POLCO” value ([1]; 125 g/ha) was 0%, the “Percentage damage IPOHE” value ([2]; 125 g/ha) was 30% and the “Percentage damage AMARE” value ([3]; 125 g/ha) was 70%. For the same molecule, the “Percentage damage KCHSC” value ([4]; 125 g/ha) was 60%, the “Percentage damage GLXMA” value ([5]; 125 g/ha) was 10% and the “Percentage damage SIDSP” value ([6]; 125 g/ha) was 70%. The “Percentage damage XANST” value ([7]; 125 g/ha) was 20%, the “Percentage damage SINAR” value ([8]; 125 g/ha) was 70% and the “Percentage damage ABUTH” value ([9]; 125 g/ha) was 40%. For the same molecule, the “Percentage damage EPHHL” value ([10]; 125 g/ha) was 100%, the “Percentage damage GALAP” value ([11]; 125 g/ha) was 90% and the “Percentage damage CHEAL” value ([12]; 125 g/ha) was 30%. For the same molecule, the pest or weed control at 125 g/ha ([13]; 125 g/ha) was 90%, the pest or weed control at 125 g/ha ([14]; 125 g/ha) was 90% and the pest or weed control at 125 g/ha ([15]; 125 g/ha) was 100%. The pest or weed control at 125 g/ha ([16]; 125 g/ha) was 90%, the plant injury at 125 g/ha ([17]; 125 g/ha) was 100% and the pest or weed control at 125 g/ha ([18]; 125 g/ha) was 90%. It also gave a pest or weed control at 125 g/ha ([19]; 125 g/ha) of 100%, a pest or weed control at 125 g/ha ([20]; 125 g/ha) of 10% and a pest or weed control at 125 g/ha ([21]; 125 g/ha) of 90%. For the same molecule, the pest or weed control at 125 g/ha ([22]; 125 g/ha) was 100%, the pest or weed control at 125 g/ha ([23]; 125 g/ha) was 100% and the pest or weed control at 125 g/ha ([24]; 125 g/ha) was 90%. It also gave a pest or weed control at 125 g/ha ([25]; 125 g/ha) of 90%.

In the case of `COC(=O)c1nc(-c2ccc(Cl)c(OC)c2F)nc(N)c1Cl` [Ref. Ex. B, 4-Amino-5-chloro-2-(4-chloro-2-fluoro-3-methoxyphenyl)-6-methoxycarbonyl-pyrimidine, reference compound], the “Percentage damage POLCO” value ([1]; 15 g/ha) is reported as 0%, the “Percentage damage IPOHE” value ([2]; 15 g/ha) is reported as 0% and the “Percentage damage AMARE” value ([3]; 15 g/ha) is reported as 70%. The “Percentage damage KCHSC” value ([4]; 15 g/ha) was 0%, the “Percentage damage GLXMA” value ([5]; 15 g/ha) was 90% and the “Percentage damage SIDSP” value ([6]; 15 g/ha) was 40%. For the same molecule, the “Percentage damage XANST” value ([7]; 15 g/ha) was 0%, the “Percentage damage SINAR” value ([8]; 15 g/ha) was 80% and the “Percentage damage ABUTH” value ([9]; 15 g/ha) was 30%. For the same molecule, the “Percentage damage EPHHL” value ([10]; 15 g/ha) was 80%, the “Percentage damage GALAP” value ([11]; 15 g/ha) was 70% and the “Percentage damage CHEAL” value ([12]; 15 g/ha) was 30%. The pest or weed control at 8 g/ha [13] was 80%, the pest or weed control at 8 g/ha [14] was 80% and the pest or weed control at 8 g/ha [15] was 100%. For the same molecule, the plant injury at 8 g/ha [17] was 90%, the pest or weed control at 8 g/ha [18] was 70% and the pest or weed control at 8 g/ha [19] was 100%. The pest or weed control at 8 g/ha [20] was 80%, the pest or weed control at 8 g/ha [21] was 80% and the pest or weed control at 8 g/ha [22] was 90%. The pest or weed control at 8 g/ha [23] was 100% and the pest or weed control at 8 g/ha [25] was 80%.

With `C=Cc1c(N)nc(-c2ccc(Cl)c(OC)c2F)nc1C(=O)OC` [Compound 2, 4-Amino-2-(4-chloro-2-fluoro-3-methoxy-phenyl)-5-ethenyl-6-methoxy-carbonyl-pyrimidine] the “Percentage damage POLCO” value ([1]; 15 g/ha) was 20%, the “Percentage damage IPOHE” value ([2]; 15 g/ha) was 30% and the “Percentage damage AMARE” value ([3]; 15 g/ha) was 40%. For the same molecule, the “Percentage damage KCHSC” value ([4]; 15 g/ha) was 100%, the “Percentage damage GLXMA” value ([5]; 15 g/ha) was 20% and the “Percentage damage SIDSP” value ([6]; 15 g/ha) was 80%. For the same molecule, the “Percentage damage XANST” value ([7]; 15 g/ha) was 0%, the “Percentage damage SINAR” value ([8]; 15 g/ha) was 30% and the “Percentage damage ABUTH” value ([9]; 15 g/ha) was 40%. The “Percentage damage EPHHL” value ([10]; 15 g/ha) was 100%, the “Percentage damage GALAP” value ([11]; 15 g/ha) was 100% and the “Percentage damage CHEAL” value ([12]; 15 g/ha) was 70%. The pest or weed control at 8 g/ha [13] was 70%, the pest or weed control at 8 g/ha [14] was 90% and the pest or weed control at 8 g/ha [15] was 80%. It also gave a pest or weed control at 8 g/ha [16] of 30%, a plant injury at 8 g/ha [17] of 60% and a pest or weed control at 8 g/ha [18] of 80%. It also gave a pest or weed control at 8 g/ha [19] of 90%, a pest or weed control at 8 g/ha [21] of 10% and a pest or weed control at 8 g/ha [22] of 80%. It also gave a pest or weed control at 8 g/ha [23] of 90% and a pest or weed control at 8 g/ha ([24]; 8 g/ha) of 80%.

For `C=Cc1c(N)nc(-c2ccc(Cl)c(OC)c2F)nc1C(=O)O` [Compound 11, 4-amino-2-(4-chloro-2-fluoro-3-methoxyphenyl) -5-ethenylpyrimidine-6-carboxylic acid], the “Percentage damage POLCO” value ([1]; 250 g/ha) was 20%, the “Percentage damage IPOHE” value ([2]; 250 g/ha) was 100% and the “Percentage damage AMARE” value ([3]; 250 g/ha) was 100%. The “Percentage damage KCHSC” value ([4]; 250 g/ha) was 100%, the “Percentage damage GLXMA” value ([5]; 250 g/ha) was 0% and the “Percentage damage SIDSP” value ([6]; 250 g/ha) was 100%. For the same molecule, the “Percentage damage XANST” value ([7]; 250 g/ha) was 70%, the “Percentage damage SINAR” value ([8]; 250 g/ha) was 70% and the “Percentage damage ABUTH” value ([9]; 250 g/ha) was 100%. The “Percentage damage EPHHL” value ([10]; 250 g/ha) was 100%, the “Percentage damage CHEAL” value ([12]; 250 g/ha) was 100% and the pest or weed control at 8 g/ha [13] was 70%. For the same molecule, the pest or weed control at 8 g/ha [15] was 60%, the pest or weed control at 8 g/ha [16] was 10% and the plant injury at 8 g/ha [17] was 0%. The pest or weed control at 8 g/ha [18] was 80%, the pest or weed control at 8 g/ha [19] was 90% and the pest or weed control at 8 g/ha [20] was 80%. The pest or weed control at 8 g/ha [21] was 0%, the pest or weed control at 8 g/ha [22] was 90% and the pest or weed control at 8 g/ha [23] was 90%. For the same molecule, the pest or weed control at 8 g/ha [25] was 80%.
